Where two headings read alike, the source gives them in different places. One block for each molecule: values may come before it.
Experiments:
[1] = Heart rate, blood pressure, ECG and respiratory rate in human volunteers receiving the tracer; assay type: in vivo; conditions: 1-5 mCi intravenously
Description: (§1) The myocardial kinetics of BMHDA are evaluated in adult, fasted, human volunteers by positron tomography. Following attenuation measurements, volunteers receive between 1-5 mCi [^11 C] BMHDA intravenously and serial images are recorded for 30 min. No changes in heart rate, blood pressure, ECG, or respiratory rate are observed.

[2] = Myocardial kinetics by positron tomography in adult, fasted, human volunteers; assay type: in vivo; conditions: 1-5 mCi intravenously
Description: as §1

[3] = dog, in vivo
[4] = Imaging study of a canine heart one hour post-LAD ligation; assay type: in vivo; conditions: dog
From the text: In addition to its long retention time, [^11 C] […] An imaging study of a canine heart following [^11 C]

[5] = Tissue distribution study in CD Fischer rats (organ radioactivity, NaI well scintillation counter); assay type: in vivo; conditions: rat
Description: CD Fischer rats (175-225 g) are anesthetized with ether and 0.2 ml ([…]) of [^11 C] BMHDA is injected through the femoral vein. The rats are sacrificed by ether asphyxiation at 5, 15, 30, and 60 minutes after dosing. The appropriate organs are excised and radioactivity measured in a NaI (T1) well scintillation counter.

[6] = Biodistribution and positron tomography imaging of the heart and liver in mongrel dogs; conditions: dog, images 3, 13 and 48 minutes after injection, [^11 C] BMHDA versus [^11 C] HDA
[7] = Sequential positron tomography imaging of the heart in a mongrel dog, 201Tl as control; assay type: in vivo
Description: Solutions of [^131 I]-BMPTA and, as a control, ^201 T1, are injected sequentially in a mongrel dog. After each injection, sequential images of the dog's heart are obtained using positron tomography.

Biodistribution in mice = assay type: in vivo
[8] = throughout the monitoring period

- time in which myocardial activity approaches a constant level [2]: ≤ 3 min
- region of highest regional uptake in the myocardium [3]: left ventricle
- wash-out from / retention in the myocardium [3]: much higher retention in the myocardium
- uptake in normal areas of the heart [4]: very high uptake
- uptake in the apex, the region in which the infarct is located [4]: much lower uptake
- uptake pattern [4]: desirably selective uptake pattern
- retention of radioactivity in the heart ([5]; i.v. (femoral vein), 5-60 min): retained in the heart for up to one hour
- liver activity ([5]; i.v., 5-60 min): increases during the course of the study
- lung activity ([5]; i.v., compared with heart activity): at all times lower than heart activity
SMILES: CCCCCCCCCCCCCCC(C)C[11C](=O)O (stereo not drawn) [[^11 C] BMHDA, [1-^11 C] beta-methylheptadecanoic acid]
- ECG [1]: No changes
- blood pressure [1]: No changes
- heart rate [1]: No changes
- respiratory rate [1]: No changes
- myocardial activity for the remainder of the observation ([2]; serial images for 30 min): constant for the remainder of the observation
- radioactivity in the myocardium over time [3]: remains constant throughout the experiment (60 minutes)
- extraction by the heart muscle ([5]; i.v. (femoral vein), 5-60 min): selectively extracted by the heart muscle

SMILES: CCCCCCCCCCCCCCCCC(=O)O [[^11 C] HDA, [^11 C] heptadecanoic acid]
- wash-out from / retention in the myocardium [6]: rapidly washes out of the tissue

SMILES: CC(CCCCCCCCCCCc1ccc([131I])cc1)CC(=O)O (stereo not drawn) [[^131 I]-BMPTA, Beta-methyl-omega-(p-[^131 I]iodophenyl) tetradecanoic acid]
- retention by the heart muscle compared to ^201 T1 [7]: longer retention
- time after injection over which clear images of the heart are obtained [7]: as long as two hours after the injection
- activity in the heart over the initial 60 minute period ([7]; 60 minutes): remains essentially the same
- time of peak uptake by the kidney (Biodistribution in mice): 15 min
- uptake in the heart (Biodistribution in mice; 5 minutes after injection): high levels of uptake
- uptake in the liver (Biodistribution in mice; 5 minutes after injection): high levels of uptake
- uptake by the kidney after the peak (Biodistribution in mice; 30 minutes after injection): declining slightly
- maintenance of radioactivity in heart and liver (Biodistribution in mice; over the 30 minutes of the experiment): high levels of radioactivity generally being maintained
- radioactivity in blood (Biodistribution in mice; [8]): lower throughout the monitoring period
- radioactivity in skeletal muscle (Biodistribution in mice; [8]): lower throughout the monitoring period
- radioactivity in the lungs (Biodistribution in mice; [8]): lower throughout the monitoring period
